How the values were obtained:
Homo sapiens [1] = species: Homo sapiens; test: Compound (at 25 micro g/ml) was tested for antithrombotic activity in presence of heparin; assay type: functional
Homo sapiens [2] = species: Homo sapiens; test: compound (at 25 micro g/ml) was tested for antithrombotic activity; assay type: functional

SMILES | Thrombin time (Homo sapiens [1]) [s] | Thrombin time (Homo sapiens [2]) [s]
COCO/N=[N+](\[O-])N1CCN(C[C@H]2O[C@H](OC)[C@H](NS(=O)(=O)O)[C@@H](OS(=O)(=O)O)[C@@H]2O[C@@H]2O[C@H](C(=O)O)[C@@H](OC)[C@H](O)[C@H]2O)CC1 [HEPARIN/DIAZENIUMDIOLATE CONJUGATE] | 80 | –
CO[C@H]1O[C@H](CN2CCNCC2)[C@@H](O[C@@H]2O[C@H](C(=O)O)[C@@H](OC)[C@H](O)[C@H]2O)[C@H](OS(=O)(=O)O)[C@H]1NS(=O)(=O)O [HEPARIN/DIAZENIUMDIOLATE CONJUGATE] | 31 | –
CO[C@H]1O[C@H](COS(=O)(=O)O)[C@@H](O[C@@H]2O[C@H](C(=O)O)[C@@H](OC)[C@H](O)[C@H]2O)[C@H](OS(=O)(=O)O)[C@H]1NS(=O)(=O)O [HEPARIN/DIAZENIUMDIOLATE CONJUGATE] | – | 92
